According to ChEMBL document CHEMBL3046224, “Synthesis of novel 2-phenylsulfonylhydrazono-3-(2',3',4',6'-tetra-O-acetyl-beta-d-glucopyranosyl)thiazolidine-4-ones from thiosemicarbazide precursors” (2006):

Key:
Assay type in all cases: functional
Details in all cases: read-out: GI
[1] = test system: Phomopsis asparagi; assay: Fungicidal activity against Phomopsis asparagi assessed as growth inhibition at 50 ppm relative to control
[2] = test system: Botryosphaeria berengeriana; assay: Fungicidal activity against Botryosphaeria berengeriana assessed as growth inhibition at 50 ppm relative to control
[3] = test system: Brassica rapa subsp. oleifera; assay: Herbicidal activity against Brassica rapa subsp. oleifera assessed as growth inhibition at 1.5 kg/ha applied to soil relative to control

| Compound | inhibition of growth at 50 ppm [1] [%] | inhibition of growth at 50 ppm [2] [%] | inhibition of growth at 1500 g/ha [3] [%] |
| --- | --- | --- | --- |
| CC(=O)OC[C@H]1O[C@@H](NC(=S)NNS(=O)(=O)c2ccc(C)cc2)[C@H](OC(C)=O)[C@@H](OC(C)=O)[C@@H]1OC(C)=O | 30 | 30 | – |
| CC(=O)OC[C@H]1O[C@@H](N2C(=O)CS/C2=N\NS(=O)(=O)c2ccc(C)cc2)[C@H](OC(C)=O)[C@@H](OC(C)=O)[C@@H]1OC(C)=O | 30 | 30 | 39.8 |
| CC(=O)O[C@@H]1[C@@H](OC(C)=O)[C@H](OC(C)=O)CO[C@H]1NC(=S)NNS(=O)(=O)c1ccccc1 | 30 | 30 | – |
